# ChEMBL document CHEMBL3507680, “University of Dundee, Gates Library screen for HepG2 cell viability”
# Test: Human HepG2 cell viability assay in 384 well format
# Assay type: toxicity, cell-based
# Set-up: dose 125 nL, time 70.5 hour; concentration not given beside the values
# Settings: HepG2 cells, read-out: Inhibition
row,SMILES,cytotoxicity at 70.5 h
1,O=C1CC(c2cccnc2)c2c(c(C(=O)O)cn2-c2cccc(F)c2)N1 (stereo not given),-8.96%
2,Cc1n[nH]c2nc(-c3ccccc3O)cc(C(=O)O)c12,13.5%
3,Cn1cc(C2SCC(=O)Nc3c2cnn3C(C)(C)C)cn1 (stereo not given),0.666%
4,CC(C)(C)n1ncc2c1NC(=O)CSC2c1ccsc1 (stereo not given),-13.1%
5,COc1ccccc1CNC(=O)COc1c(C)n(C)ccc1=O,-20.3%
6,CC1CC(=O)c2cc(C(=O)N3CCOCC3)c(=O)[nH]c2C1 (stereo not given),-0.268%
7,O=C(NCCc1cccc(F)c1)C1(n2cnnn2)CCCCC1,-3.65%
8,Cc1nn(C)cc1-c1nn2c(C(F)(F)F)nnc2s1,-9.41%
9,CN(C)C(CNc1c(NCc2ccco2)c(=O)c1=O)c1ccccc1 (stereo not given),-8.7%
10,CC1CCN(c2ccc(=O)n(CC(=O)N(C)Cc3ccccc3)n2)CC1,16.3%
11,O=c1c(NCc2ccccn2)c(NCC(O)CN2CCOCC2)c1=O (stereo not given),-12.9%
12,Cc1nn(C2CCS(=O)(=O)C2)c(O)c1Cc1ccc(Br)cc1 (stereo not given),19.3%
13,O=C(NC1CCCCC1)c1ccc(Oc2ccc3nncn3n2)cc1,-7.56%
14,CC(C)CNC(=O)CNc1c(NCc2ccco2)c(=O)c1=O,0.885%
15,Cc1nc(NC(=O)CCN2C(=O)c3ccccc3NC2C(C)C)sc1C (stereo not given),-0.712%
16,CC(C)CNc1c(NCc2ccco2)c(=O)c1=O,-11.5%
17,COCCn1ccc(=O)c(OCC(=O)Nc2cccc(OC)c2)c1C,13.8%
18,COCCn1ccc(=O)c(OCC(=O)Nc2ccc(OC)c(Cl)c2)c1C,-5.11%
19,COc1ccc(CNc2c(N3CCN(C(C)=O)CC3)c(=O)c2=O)cc1,-12.5%
20,O=c1c(NCCc2ccc(O)cc2)c(NCc2ccco2)c1=O,-4.28%
21,COc1cc(OC)cc(-c2noc(C(N)CCSC)n2)c1 (stereo not given),-2.69%
22,Cc1c(C(=O)N2CCNC(=O)C2)sc2nc[nH]c(=O)c12,13.4%

row,SMILES,cytotoxicity at 70.5 h
1,Cc1cccc(C)c1NC(=O)CC(CN1CCN(C)CC1)C(=O)O (stereo not given),-15.8%
2,CCCn1[nH]c(CNc2cccc(Cl)c2)nc1=O,-15.4%
3,COc1c[nH]c(C(=O)N2CCN(c3ccc(Cl)cc3)CC2)cc1=O,20.3%
4,CCn1c(=O)nc(N)c2c(-c3ccc(OC)cc3)csc21,-10.3%
5,Cc1nc2sc(C(=O)N3CCNC(=O)C3)c(C)c2c(=O)[nH]1,-4.68%
6,Cc1cc(NCc2ccco2)nc2[nH]nc(N)c12,-3.79%
7,COCCn1ccc(=O)c(OCC(=O)Nc2ccc(Br)cc2)c1C,-7.36%
8,Cc1ccsc1C1CC(=O)Nc2c1cnn2C(C)C (stereo not given),-7.26%
9,Cc1ccc(C(=O)Nc2nnc(C3CC3)s2)c(-n2cnnn2)c1C,-14.4%
10,O=C(COc1coc(CN2CCCC2)cc1=O)Nc1cc(Cl)ccc1Cl,-7.96%
11,COC(=O)c1ccc(C2SC(C)=Nc3c2c(=O)[nH]n3C2CCCC2)cc1 (stereo not given),-14.5%
12,O=C(COc1coc(CN2CCCC2)cc1=O)Nc1ccc(Cl)c(Cl)c1,-7.3%
13,Cn1ccc2ccc(C(=O)N3CCN(C(=O)OC(C)(C)C)CC3)cc21,3.39%
14,NC(=O)c1ccccc1NC(=O)CCN1CCN(CCO)CC1,-10.4%
15,CC1=Nc2c(c(=O)[nH]n2C(C)C)C(c2ccc3c(c2)n(C)c(=O)n3C)S1 (stereo not given),-9%
16,CC1=Nc2c(c(=O)[nH]n2C(C)C)C(c2ccc3nccnc3c2)S1 (stereo not given),-2.49%
17,Cc1nn2cnnc2c(C)c1CCC(=O)Nc1nc2c(s1)CCC2,-13%
18,O=C(Nc1cccnc1-n1cc(Br)cn1)C1CCCC1,-25.7%
19,COc1coc(C(=O)Nc2nc(-c3ccccn3)cs2)cc1=O,-7.13%
20,CC(C)n1ncc2c1NC(=O)CC21C(=O)Nc2c(Br)cc(Cl)cc21 (stereo not given),-14.8%
21,COCCCNC(=O)c1cc(-c2ccc(OC)cc2)nn1C,4.27%
22,CC(C)n1ncc2c1NC(=O)CC21C(=O)Nc2c(Cl)ccc(Cl)c21 (stereo not given),-12.2%

row,SMILES,cytotoxicity at 70.5 h
1,CC(C)n1ncc2c1NC(=O)CC21C(=O)Nc2c(Cl)cc(Br)cc21 (stereo not given),-0.17%
2,COc1ccc2nnc(CCCC(=O)NCCc3ccccc3)n2n1,-9.61%
3,CN1C(=O)COc2cc(NC(=O)CCc3nc4cccnc4[nH]3)ccc21,-11.3%
4,COc1ccc2nnc(CCC(=O)NCc3cccn3C)n2n1,-2.62%
5,COc1ccc(-c2cc(C(=O)NCCC(C)C)n(C)n2)cc1,4.25%
6,CC(C)n1ncc2c1NC(=O)CC21C(=O)Nc2cc(Cl)cc(Cl)c21 (stereo not given),-17.8%
7,Cc1cc(C)nc(N2CCCC(C(=O)Nc3n[nH]c(C(C)C)n3)C2)n1 (stereo not given),-7.23%
8,O=C(CCCNc1ncccn1)Nc1ccc(Cn2cncn2)cc1,-10.8%
9,Cc1nn(-c2ncccn2)c2c1C(c1cnn(C)c1)SCC(=O)N2 (stereo not given),-24.2%
10,COC(=O)CNC(=O)c1cn(-c2ccccn2)c(=O)c2ccccc12,-9.1%
11,Cc1nc(C(=O)N2CCN(S(C)(=O)=O)CC2)c(-c2ccccc2)s1,9.71%
12,CC(C)(C)C1SCC(=O)Nc2c1c(O)nn2C1CCCCC1 (stereo not given),8.92%
13,O=C(CCNC(=O)c1cnccn1)Nc1ncc[nH]1,-31.8%
14,CCS(=O)(=O)N1CCc2nnc(CN(C)C(C)C)n2CC1,19.5%
15,Cc1occc1C(=O)N1C[C@@H]2CN(S(C)(=O)=O)CCO[C@@H]2C1,46.9%
16,CNC(=O)N1CCC2(CC1)C(=O)N(C)c1c(F)cccc12,4.07%
17,Cn1nnc2c1CCN(S(C)(=O)=O)C2COCC1CC1 (stereo not given),0.405%
18,O=C(NCCN1CCOCC1)c1cc2c(s1)CCN2Cc1cccnc1,-3.99%
19,CCN1C(=O)CCCC12CCCN(C(=O)c1ccoc1)C2 (stereo not given),-3.69%
20,CN1C(=O)C2(CCN(C(=O)c3cccnc3)CC2)c2cccc(F)c21,-2.04%
21,Cc1nc(C)c2c(n1)CCN(C(=O)CN(C)C)CC2,2.27%
22,CC(C)Nc1ncnc2c1CCNCC2,2.95%

row,SMILES,cytotoxicity at 70.5 h
1,CN(C)CC(=O)N1CCc2ncnc(-c3ccoc3)c2CC1,-0.0529%
2,CN1C(=O)CCC12CCCN(C(=O)c1ccoc1)C2 (stereo not given),-1.96%
3,Cc1cnc(CNC(=O)c2cc3c(s2)CCN3S(C)(=O)=O)cn1,-0.66%
4,CS(=O)(=O)N1CCc2c(nnn2CC2CC2)C1COCC1CC1 (stereo not given),-1.97%
5,CNC(=O)NC1CC2(CCNCC2)c2ccc(C)cc21 (stereo not given),18.2%
6,CC(C)CN1C(=O)CO[C@@H]2CN(C(=O)N(C)C)C[C@H]21,2.11%
7,O=C(NCCc1ccccc1)N1CC[C@@H]2CNS(=O)(=O)[C@@H]2CC1,0.679%
8,CC(C)CN1C(=O)CO[C@@H]2CN(C(=O)CC(F)(F)F)C[C@H]21,-1.53%
9,CC(C)CN1C(=O)CO[C@@H]2CN(C(=O)N3CCOCC3)C[C@H]21,-2.58%
10,CC(C)CN1C(=O)CO[C@@H]2CN(C(=O)[C@H]3CCCO3)C[C@H]21,-1.2%
11,O=C(NCCn1nc2ccccn2c1=O)c1sccc1-c1ccccc1,-5.5%
12,CCc1ccsc1C(=O)NCCn1nc2ccccn2c1=O,-5.41%
13,CC1CN(CC(=O)Nc2ccncc2)CCN1Cc1nccn1C (stereo not given),-0.423%
14,CC1CN(CC(=O)N2CCOCC2)CCN1Cc1nccn1C (stereo not given),-2.16%
15,CC1CN(CC(=O)NC2CCOCC2)CCN1Cc1nccn1C (stereo not given),-0.539%
16,c1nc(N2CCCC2Cn2cncn2)c2sccc2n1 (stereo not given),-4.84%
17,c1ccc2oc(CN3CCCC(Cn4cncn4)C3)nc2c1 (stereo not given),-1.69%
18,CN(C)CCn1c(=O)n(C)c(=O)c2ccccc21,18.7%
19,CC(C)n1c(=O)c2ccccc2n(CCCN(C)C)c1=O,-12.5%
20,Cc1cccc(CN2CCS(=O)(=O)[C@@H]3CCN(C(=O)C4CC4)CC[C@@H]32)n1,15.9%
21,Cc1ccnc(C(=O)N2C[C@@H]3CN(S(C)(=O)=O)CCO[C@@H]3C2)c1,18%
22,CC(C)N(C)Cc1nnc2n1CCN(S(=O)(=O)C1CC1)CC2,-0.847%

row,SMILES,cytotoxicity at 70.5 h
1,CC(C)N(C)Cc1nnc2n1CCCN(S(=O)(=O)C1CC1)C2,-5.26%
2,O=C1CC(c2ccncc2)C2(CCN(C(=O)NC3CC3)CC2)N1 (stereo not given),-1.57%
3,O=C1NC2(CCN(CCO)CC2)CC1c1ccccc1 (stereo not given),-2.09%
4,O=C(c1ccccc1)N1C[C@@H]2CCCO[C@@H]2[C@H](N2CCCC2)C1,-4.22%
5,O=C(c1ccoc1)N1CCCC2(CCC(=O)N2Cc2ccncc2)C1 (stereo not given),-1.87%
6,CC(C)NC(=O)N1CCC2(CC1)NC(=O)CC2c1ccncc1 (stereo not given),-1.45%
7,CCS(=O)(=O)N1CC[C@@H]2[C@H](CC1)N(Cc1cccc(C)n1)CCS2(=O)=O,2.24%
8,CCC(=O)N1CC[C@@H]2[C@H](CC1)N(Cc1cccc(C)n1)CCS2(=O)=O,1.51%
9,Cc1cc(CN2C[C@H]3CCC[C@@]3(COCC3CCOCC3)C2)no1,0.596%
10,CCCC(=O)N1CC[C@@H]2[C@H](CC1)N(Cc1cccc(C)n1)CCS2(=O)=O,-2.09%
11,N#Cc1ccc(N2CCC3(CC2)CC(Oc2cccnc2)CO3)cc1 (stereo not given),9.42%
12,N#Cc1cccc(CN2CC3(CCCCN3c3cncnc3)CC2=O)c1 (stereo not given),-0.331%
13,Cc1cccc(CN2Cc3[nH]nc(COCCO)c3C2)n1,-0.969%
14,Cn1cccc1C(=O)N1CC[C@H]2[C@H]1CCN2CC1CCOCC1,-0.0713%
15,Cc1noc(C)c1CN1C[C@@H]2CN(C(=O)c3cnccn3)C[C@@H]2C1,0.0874%
16,Cc1ccc(C(=O)N2C[C@@H]3CCCO[C@@H]3[C@H](N3CCCC3)C2)cn1,0.948%
17,Cc1ccc2c(n1)N(CC1CC1)CCN(Cc1ccco1)C2,1.82%
18,c1ccc(CN2C[C@H]3CCC[C@@]3(COCC3CCOCC3)C2)nc1,0.897%
19,c1ccc(CN2C[C@@H]3COC[C@]3(COCC3CCOCC3)C2)nc1,1.04%
20,Cc1nc2c(c(NC(C)C)n1)CCN(Cc1cccnc1)CC2,4.65%
21,c1ccc(CN2CCc3ncnc(N4CCCC4)c3CC2)nc1,-4.15%
22,Cn1cc(CN2CCc3ncnc(N4CCOCC4)c3CC2)cn1,-1.66%
